# Results published in PMC10584170, “Machine learning-based phenotypic imaging to characterise the targetable biology of Plasmodium falciparum male gametocytes for the development of transmission-blocking antimalarials” (PLOS Pathogens, 2023).
# Legend:
# [1] = system: P. falciparum male gametocytes; test: P. falciparum Dual Gamete Formation Assay (PfDGFA), male readout (exflagellation); type: cell-based, Plasmodium falciparum NF54; settings: for Average inhibition male (%): average of replicates; for % inhibition male (individual replicates) R1: replicate R1; for % inhibition male (individual replicates) R3: replicate R3; for % inhibition male (individual replicates) R4: replicate R4; for Activity: hit = >50% inhibition in male or female readout in at least 3 replicates, 0 = no class assigned
# Summary of the method: (§1)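 Read-outs are automated image counts of exflagellation centres (brightfield, 10 frames over 1 s) and Pfs25-positive female gametes (Cy3 fluorescence).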
# [2] = system: P. falciparum female gametocytes; test: P. falciparum Dual Gamete Formation Assay (PfDGFA), female readout (Pfs25-positive female gametes); type: cell-based, Plasmodium falciparum NF54; settings: for Average inhibition female (%): average of replicates; for % inhibition female (individual replicates) R1: replicate R1; for % inhibition female (individual replicates) R3: replicate R3; for % inhibition female (individual replicates) R4: replicate R4
# Summary of the method: as §1
# [3] = 2µM, 24h preincubation with gametocytes prior to induction of gametogenesis
# [4] = 2µM, 24h preincubation, hits selected on >50% inhibition in the male readout across replicates
# [5] = PfDGFA at 2µM, 24h preincubation
# [6] = 2µM, 24h preincubation, hits selected on >50% inhibition in the female readout across replicates
# [7] = PfDGFA at 2µM, 24h preincubation with gametocytes
# [8] = number of replicates with >50% inhibition in the male readout, 2µM
# [9] = number of replicates with >50% inhibition in the female readout, 2µM
# [10] = 2µM, 24h preincubation, number of replicates with >50% inhibition in the male readout
# [11] = 2µM, 24h preincubation, number of replicates with >50% inhibition in the female readout
# [12] = PfDGFA at 2µM, 24h preincubation with gametocytes prior to induction of gametogenesis
Structure (SMILES),"Average inhibition male (%) [1, 3] [%]","% inhibition male (individual replicates) R1 [1, 3] [%]","% inhibition male (individual replicates) R3 [1, 3] [%]","% inhibition male (individual replicates) R4 [1, 3] [%]","HitlevelM [1, 4]","Activity [1, 5]","Average inhibition female (%) [2, 3] [%]","% inhibition female (individual replicates) R1 [2, 3] [%]","% inhibition female (individual replicates) R3 [2, 3] [%]","% inhibition female (individual replicates) R4 [2, 3] [%]","HitlevelF [2, 6]","HitlevelM [1, 10]","HitlevelF [2, 11]",further results
CN1CCC(NCc2ccc(-c3cccc(S(=O)(=O)NCc4ccccc4)c3)cc2)CC1.O=C(O)C(F)(F)F [TCMDC-132238],25.7,17.7,-3.8,50.9,1,0,15.2,18.5,-4.9,24.5,0,,,
O=C(O)C(F)(F)F.O=S(=O)(NCCN1CCCC1)c1cccc(-c2ccc(CNC3Cc4ccccc4C3)cc2)c1 [TCMDC-132241],-1.0,15.7,-7.3,-2.5,0,0,16.9,23.8,3.4,2.0,0,,,
COc1ccc(CNC2CCN(C)CC2)cc1-c1ccc(S(=O)(=O)NCc2ccccc2)cc1.O=C(O)C(F)(F)F [TCMDC-132244],,,,,,,,,,,,,,"Average inhibition male (%) [1, 7]: 63.1%; % inhibition male (individual replicates) R1 [1, 7]: 62.4%; % inhibition male (individual replicates) R3 [1, 7]: 51.6%; % inhibition male (individual replicates) R4 [1, 7]: 78.9%; HitlevelM [1, 8]: 4; Average inhibition female (%) [2, 7]: 25.2%; % inhibition female (individual replicates) R1 [2, 7]: 21.6%; % inhibition female (individual replicates) R3 [2, 7]: 8.8%; % inhibition female (individual replicates) R4 [2, 7]: 45.4%; HitlevelF [2, 9]: 0"
COc1ccc(CNC2CCN(C)CC2)cc1-c1ccc(S(=O)(=O)NC2CCC2)cc1.O=C(O)C(F)(F)F [TCMDC-132245],51.4,59.0,27.2,60.2,,,10.6,7.8,-17.0,30.9,,3,0,
COc1ccc(CNC2Cc3ccccc3C2)cc1-c1ccc(OC)c(S(=O)(=O)NCCN2CCCC2)c1.O=C(O)C(F)(F)F [TCMDC-132251],-9.5,-12.6,-24.0,8.2,,,36.3,26.7,26.1,31.1,,0,1,
COc1ccc(CNC2CCN(C)CC2)cc1-c1ccc(S(=O)(=O)NC2CCC2)s1.O=C(O)C(F)(F)F [TCMDC-132254],56.3,57.2,,49.8,2,0,16.7,16.7,22.1,14.8,0,,,
COc1ccc(CNC2CCN(C)CC2)cc1-c1cccc(S(=O)(=O)NCc2ccccc2)c1.O=C(O)C(F)(F)F [TCMDC-132267],,,,,,,,,,,,,,"Average inhibition male (%) [1, 7]: 67.3%; % inhibition male (individual replicates) R1 [1, 7]: 62.4%; % inhibition male (individual replicates) R3 [1, 7]: 55.8%; % inhibition male (individual replicates) R4 [1, 7]: 79.6%; HitlevelM [1, 8]: 4; Average inhibition female (%) [2, 7]: 16.9%; % inhibition female (individual replicates) R1 [2, 7]: 27.9%; % inhibition female (individual replicates) R3 [2, 7]: 4.5%; % inhibition female (individual replicates) R4 [2, 7]: 10.9%; HitlevelF [2, 9]: 0"
COc1ccc(CNC2Cc3ccccc3C2)cc1-c1cccc(S(=O)(=O)NCCN2CCCC2)c1.O=C(O)C(F)(F)F [TCMDC-132269],7.0,7.1,-13.3,18.2,,,23.4,14.9,-7.5,55.1,,0,1,
COc1ccc(CNCc2ccc(F)cc2)cc1-c1ccc(S(=O)(=O)NCCN2CCCC2)cc1.O=C(O)C(F)(F)F [TCMDC-132294],-4.3,-26.4,,1.5,,,26.6,28.2,29.3,24.2,,0,0,
Cl.N[C@@H](CCNC1CCN(c2cccc(C(F)(F)F)c2)CC1)Cc1ccc(F)c(F)c1 [TCMDC-132301],53.1,61.1,44.2,79.6,,,52.8,47.6,42.6,73.6,,2,1,
CC(O)C1CCCCN1C(=O)c1ccc(-c2ccc(-c3nc4ccccc4[nH]3)s2)cc1 (centres unmarked) [TCMDC-132330],,,,,,,,,,,,,,"% inhibition male (individual replicates) R1 [1, 12]: 10.5%; % inhibition male (individual replicates) R3 [1, 12]: 7.6%; % inhibition male (individual replicates) R4 [1, 12]: 19.6%; Average inhibition male (%) [1, 5]: 14.0%; % inhibition female (individual replicates) R1 [2, 12]: 7.4%; % inhibition female (individual replicates) R3 [2, 12]: -27.3%; % inhibition female (individual replicates) R4 [2, 12]: 14.9%; Average inhibition female (%) [2, 5]: -1.0%"
CN(C)Cc1ccc(-c2ccc(NC(=O)c3ccc4c(=O)n(Cc5ccccc5)cnc4c3)cc2)cc1 [TCMDC-132361],62.7,57.2,,53.6,,,36.5,37.4,28.0,35.8,,3,0,
COc1ccc(-c2cccc(CNC3CCN(C)CC3)c2)cc1S(=O)(=O)NCc1ccccc1.O=C(O)C(F)(F)F [TCMDC-132375],31.3,25.4,11.7,56.9,1,0,14.0,15.7,4.8,20.5,0,,,
Cc1cc(-c2cccc(CNC3CCN(C)CC3)c2)ccc1S(=O)(=O)NCc1ccccc1.O=C(O)C(F)(F)F [TCMDC-132379],43.8,43.1,25.4,55.6,2,0,17.5,20.6,25.5,-4.5,0,,,
